# Measured values: patent EP0863769B1 (priority 1996, dated 1998)
# Columns and labels:
# Format in all cases: binding, Influenza Viren
# Conditions in all cases: read-out: Affinität der Bindung an Virus, Kaff
# A/Chile/1/83 = target: A/Chile/1/83
# A/Sichuan/1/87 = target: A/Sichuan/1/87
# A/USSR/90/77 = target: A/USSR/90/77
# B/Ann Arbor/1/86 = target: B/Ann Arbor/1/86
# A/USSR/3/85 = target: A/USSR/3/85
# B/USSR/100/83 = target: B/USSR/100/83
# A/FW/1/50 = target: A/FW/1/50
# A/England/321/77 = target: A/England/321/77
# X31 (A/Aichi/2/68) = target: X31 (A/Aichi/2/68)
# B/Yamagata/11/88 = target: B/Yamagata/11/88
substance,measurement,setting,value
Poly-N-(2-Hydroxyethyl)-acrylamid mit 20% mol. 6SLN [6SLN-PAA],Kd,A/Chile/1/83,6000 nM
same,Kd,A/Sichuan/1/87,100 nM
same,Kd,A/USSR/90/77,300 nM
same,Kd,B/Ann Arbor/1/86,3000 nM
same,Kd,A/USSR/3/85,100 nM
same,Kd,B/USSR/100/83,2000 nM
same,Kd,A/FW/1/50,3000 nM
same,Kd,A/England/321/77,10 nM
same,Kd,X31 (A/Aichi/2/68),3000 nM
same,Kd,B/Yamagata/11/88,100000 nM
